Measured values published in PMC12074421, “Development and Characterization of pFluor50, a Fluorogenic-Based Kinetic Assay System for High-Throughput Inhibition Screening and Characterization of Time-Dependent Inhibition and Inhibition Type for Six Human CYPs” (Molecules, 2025).
“And” between values parts separate entries of the source, which are not always exact repeats. Equal values may be shown once. “Also recorded” adds a separate entry of the source. Where a name gives a salt, the structure may show the parent alone. Read-outs that look alike come from different tables or passages of the source.

Tests used:
[1] = molecular target: CYP2C9 (Homo sapiens, UniProt P11712); details: substrate Eres, model comparison by Akaike's Information Criterion
[2] = molecular target: T1, CYP3A4 (Homo sapiens, UniProt P08684); set-up: purchased Sigma Aldrich (CYPexpress, Oxford Biomedical Research, Inc.) MTOXCE3A4; details: read-out: Literature IC50 (converted), cited from earlier work
[3] = molecular target: T1, CYP3A4; assay: pFluor50 fluorogenic CYP3A4 inhibition (IC50, time dependence)
[4] = molecular target: T1, CYP3A4; set-up: purchased Sigma Aldrich (CYPexpress, Oxford Biomedical Research, Inc.) MTOXCE3A4; method as in PMID 11095581, PMID 22252407; details: read-out: Literature KM (converted); cited from earlier work
[5] = molecular target: T1, CYP3A4; assay: pFluor50 Michaelis–Menten kinetics, CYP3A4 with DBF; format: in vitro ADME; set-up: purchased Sigma Aldrich (CYPexpress, Oxford Biomedical Research, Inc.) MTOXCE3A4
Procedure: (§1) In general, the protocol for determination of the Michaelis–Menten kinetic parameters (KM and Vmax) involved addition of the appropriate master mix to phosphate buffer followed by addition of the appropriate amount of enzyme to the mix. The master mix was determined for each specific CPY450 based on empirical methods involving each reagent to obtain a linear range of enzyme activity. A total of 30 µL of this enzyme mix was then added to each well of the 384-well plate. Next, initial background readings were taken for 5 min, after which the appropriate amount of substrate was dispensed into each well using the onboard reagent dispenser of the plate reader. All plates contained one blank well without enzyme (only master mix) for each substrate concentration. […] Table 1 provides the formulation of the master mix for each CYP, the kinetic read time with substrate, the read time interval, the concentration range of the substrate used for the Michaelis–Menten kinetics, the Ex and Em wavelengths, and the concentration of substrate for inhibition/activation screening. Table S1 details the specific parameters used for the plate reader for each CYP–substrate pair.
For determining the Michaelis–Menten kinetic parameters (KM and Vmax) for each CYP–substrate pair, kinetic studies were performed in which a range of different concentrations of the substrate were used. Table 1 details the formulations for the master mix, CYPexpress^TM concentrations, and concentration ranges of each specific substrate. For each CYP–substrate pair, plate reader parameters were set up as described in Table S1. […] Briefly, the working solution was prepared for each substrate and then primed into one of the dispensers on the plate reader. […] The amount of CYPexpress reagent in units/(mg/mL) was determined for each enzyme as new lots may have slightly different activities, and the activity of the reagent may change over time. The appropriate mass of each CYPexpress^TM reagent needed to obtain the required units was measured using an analytical balance and was transferred to the master mix solution. […]

[6] = molecular target: T2, CYP2B6 (Homo sapiens, UniProt P20813); set-up: purchased Sigma Aldrich (CYPexpress, Oxford Biomedical Research, Inc.) MTOXCE2B6; method as in PMID 17433521, PMID 9732386; details: read-out: Literature KM (converted), cited from earlier work
T2 sequence (P20813 1-491): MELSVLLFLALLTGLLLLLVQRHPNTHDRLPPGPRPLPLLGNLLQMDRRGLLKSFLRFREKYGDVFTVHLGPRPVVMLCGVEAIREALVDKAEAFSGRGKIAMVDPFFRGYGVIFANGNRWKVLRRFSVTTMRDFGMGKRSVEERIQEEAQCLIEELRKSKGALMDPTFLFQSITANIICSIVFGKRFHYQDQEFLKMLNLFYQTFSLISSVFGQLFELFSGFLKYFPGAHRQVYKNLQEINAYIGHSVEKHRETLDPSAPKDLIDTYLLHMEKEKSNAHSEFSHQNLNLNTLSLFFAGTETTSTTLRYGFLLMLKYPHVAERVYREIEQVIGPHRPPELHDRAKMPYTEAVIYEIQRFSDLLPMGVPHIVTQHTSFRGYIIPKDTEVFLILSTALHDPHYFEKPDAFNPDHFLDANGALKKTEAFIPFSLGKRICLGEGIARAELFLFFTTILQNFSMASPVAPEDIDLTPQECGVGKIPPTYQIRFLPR

[7] = molecular target: T2, CYP2B6; assay: pFluor50 Michaelis–Menten kinetics, CYP2B6 with Bzres; format: in vitro ADME; set-up: purchased Sigma Aldrich (CYPexpress, Oxford Biomedical Research, Inc.) MTOXCE2B6
Procedure: as §1
For determining the Michaelis–Menten kinetic parameters (KM and Vmax) for each CYP–substrate pair, kinetic studies were performed in which a range of different concentrations of the substrate were used. Table 1 details the formulations for the master mix, CYPexpress^TM concentrations, and concentration ranges of each specific substrate. For each CYP–substrate pair, plate reader parameters were set up as described in Table S1. The protocol used for Michaelis–Menten kinetics was similar for all the CYPs. Briefly, the working solution was prepared for each substrate and then primed into one of the dispensers on the plate reader. The other dispenser was primed with the buffer solution. 1.5 mL of phosphate buffer solution (pH 7.4) was used to prepare the master mix with the appropriate concentration of each reagent as specified in Table 1 (NADPH, NADP+, G6P, G6PDH, and/or MgCl2). The amount of CYPexpress reagent in units/(mg/mL) was determined for each enzyme as new lots may have slightly different activities, and the activity of the reagent may change over time. The appropriate mass of each CYPexpress^TM reagent needed to obtain the required units was measured using an analytical balance and was transferred to the master mix solution. This solution was mixed, and 30 µL of the solution was added to each well using a multichannel pipette. In each case, a blank control well was also included, as described in Figure S1. The plate was then transferred to the plate reader and readings were taken at the time intervals, for the appropriate length of time, and at the appropriate wavelengths as specified in Table 1.
Calibration curves were constructed using the determined plate reader settings (Figure S3) and concentrations of the products formed to allow for the calculation of product formation rates based on the observed fluorescence. For these calculations, we presumed that the total increase in observed fluorescence over time was due only to product formation. Calibration curves were generated with 6 different concentrations of the products (fluorescein and resorufin), which spanned the relative fluorescence units (RFU) observed during the kinetic experiments. This allowed for the calculation of product concentrations from the observed RFU, enabling the calculation of the product formation rates. Unfortunately, fluorescein benzyl ester (the product formed from the metabolism of dibenzyl fluorescein) is not commercially available. Therefore, the exact rate of formation could not be determined, and the Vmax for CYP3A4 cleavage of dibenzyl fluorescein has been reported as the rate of change in relative fluorescence units (RFUs) per minute.

[8] = molecular target: T2, CYP2B6; assay: biochemical
Procedure: (§2) Therefore, the pre-incubation time between the inhibitor and the CYP was first optimized prior to the full IC50 determinations. […] Therefore, a 10 min pre-incubation time was selected for convenience. […] Therefore, the sertraline pre-incubation time for the inhibition assay was optimized to 30 min (the time at which inhibition was no longer time-dependent).

[9] = molecular target: T2, CYP2B6; assay: pFluor50 fluorogenic CYP2B6 inhibition (IC50, time dependence); details: 30 µM inhibitor, pre-incubation between 5 and 30 min
Procedure: as §2

[10] = molecular target: T3, CYP2D6 (Homo sapiens, UniProt P10635); set-up: purchased Sigma Aldrich (CYPexpress, Oxford Biomedical Research, Inc.) MTOXCE2D6; details: CYP2D6, Bufuralol/LC-MS/MS; read-out: Literature IC50 (converted); cited from earlier work
[11] = molecular target: T2, CYP2B6; set-up: purchased Sigma Aldrich (CYPexpress, Oxford Biomedical Research, Inc.) MTOXCE2B6; details: read-out: Literature IC50 (converted), cited from earlier work
[12] = molecular target: T3, CYP2D6; assay: biochemical
[13] = molecular target: T3, CYP2D6; assay: pFluor50 fluorogenic CYP2D6 inhibition (IC50, time dependence); details: 30 µM inhibitor, pre-incubation between 5 and 30 min

T1 sequence (P08684 2-503 limits assumed): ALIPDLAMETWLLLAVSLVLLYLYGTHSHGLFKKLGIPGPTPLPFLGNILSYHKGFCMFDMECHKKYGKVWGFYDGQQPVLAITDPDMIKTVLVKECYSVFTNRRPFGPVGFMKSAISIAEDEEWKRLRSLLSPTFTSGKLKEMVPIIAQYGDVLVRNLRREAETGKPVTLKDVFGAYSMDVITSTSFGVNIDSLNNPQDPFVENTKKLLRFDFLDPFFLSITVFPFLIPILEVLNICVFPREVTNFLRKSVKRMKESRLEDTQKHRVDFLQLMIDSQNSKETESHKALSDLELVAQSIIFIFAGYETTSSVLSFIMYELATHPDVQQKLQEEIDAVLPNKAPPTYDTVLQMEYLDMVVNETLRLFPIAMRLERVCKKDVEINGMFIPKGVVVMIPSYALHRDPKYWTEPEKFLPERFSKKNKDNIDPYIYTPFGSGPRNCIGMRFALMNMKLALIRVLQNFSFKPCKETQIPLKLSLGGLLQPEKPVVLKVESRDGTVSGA
T3 sequence (P10635 whole entry): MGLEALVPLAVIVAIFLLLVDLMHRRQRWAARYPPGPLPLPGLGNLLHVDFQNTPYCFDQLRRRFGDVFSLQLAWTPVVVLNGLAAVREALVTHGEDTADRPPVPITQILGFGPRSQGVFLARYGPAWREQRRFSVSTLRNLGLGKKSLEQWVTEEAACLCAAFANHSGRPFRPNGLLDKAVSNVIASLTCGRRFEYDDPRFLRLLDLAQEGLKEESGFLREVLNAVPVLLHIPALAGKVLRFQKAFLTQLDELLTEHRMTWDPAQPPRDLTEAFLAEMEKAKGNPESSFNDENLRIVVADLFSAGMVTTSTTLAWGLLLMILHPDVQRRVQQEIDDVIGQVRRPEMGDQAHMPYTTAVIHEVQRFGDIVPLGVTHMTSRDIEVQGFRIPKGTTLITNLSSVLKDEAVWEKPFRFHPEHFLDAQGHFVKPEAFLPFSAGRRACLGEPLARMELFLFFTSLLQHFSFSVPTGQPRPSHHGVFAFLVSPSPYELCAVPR
CYP2C9, sequence (P11712 whole entry): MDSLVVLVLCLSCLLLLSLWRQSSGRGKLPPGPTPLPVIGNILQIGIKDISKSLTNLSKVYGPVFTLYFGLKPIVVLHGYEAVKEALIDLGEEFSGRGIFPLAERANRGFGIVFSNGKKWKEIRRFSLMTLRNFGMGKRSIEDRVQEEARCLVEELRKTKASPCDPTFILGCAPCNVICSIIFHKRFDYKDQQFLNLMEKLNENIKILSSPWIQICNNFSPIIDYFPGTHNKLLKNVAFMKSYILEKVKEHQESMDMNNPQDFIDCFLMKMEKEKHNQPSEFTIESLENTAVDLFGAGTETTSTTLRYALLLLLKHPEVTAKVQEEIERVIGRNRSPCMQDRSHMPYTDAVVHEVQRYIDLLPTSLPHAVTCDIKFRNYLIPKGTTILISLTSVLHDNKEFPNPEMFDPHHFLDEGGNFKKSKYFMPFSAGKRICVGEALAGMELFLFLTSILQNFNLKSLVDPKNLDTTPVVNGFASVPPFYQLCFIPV

Nc1ccc(S(=O)(=O)Nc2ccnn2-c2ccccc2)cc1 [Sulfaphenazole, sulfaphenazole]
Type of inhibition of CYP2C9 [1]: competitive inhibition

Cc1ccc(-c2c(-c3nn(C)c4ncnc(N5CC[C@H](N6CCCCC6)C5)c34)cnn2C)cc1 [CYP3cide]
IC50 ([2]; CYP3A4, Midazolam/LC-MS/MS): 300 ± 20 nM
IC50 ([2]; CYP3A4, Testosterone/LC-MS/MS): 690 nM
Time dependence of CYP3A4 inhibition ([3]; 0.05 µM inhibitor, pre-incubation between 5 and 30 min): time-dependent manner; also recorded: increase with time
IC50 ([3]; read-out: Average IC50, CYP3A4, DBF 4 µM, 5 min pre-incubation, DMSO 0.5%): 126 ± 66.2 nM
IC50 ([3]; read-out: IC50 (nM)– repeat 1, CYP3A4, biological repeat 1): 108 nM
IC50 ([3]; read-out: IC50 (nM)– repeat 2, CYP3A4, biological repeat 2): 200 nM
IC50 ([3]; read-out: IC50 (nM)– repeat 3, CYP3A4, biological repeat 3): 70.8 nM

O=C(OCc1ccccc1)c1ccccc1-c1c2ccc(=O)cc-2oc2cc(OCc3ccccc3)ccc12 [DBF, benzyl 2-(6-(benzyloxy)-3-oxo-3H-xanthen-9-yl)benzoate]
Km [4]: 0.87 µM and 1.37 µM
Vmax – repeat 1 ([5]; CYP3A4, biological repeat 1): 92.28 RFU/min
Vmax – repeat 2 ([5]; CYP3A4, biological repeat 2): 104.6 RFU/min
Vmax – repeat 3 ([5]; CYP3A4, biological repeat 3): 76.71 RFU/min

O=c1ccc2nc3ccc(OCc4ccccc4)cc3oc-2c1 [Bzres, 7-(benzyloxy)-3H-phenoxazin-3-one]
Km ([6]; CYP2B6, human Bl cell): 1.3 µM
Km ([6]; CYP2B6): 34 ± 10.4 µM
Average Vmax ([7]; CYP2B6 1 mg/mL, rate of product formation): 0.33 ± 0.1 nmol/min
Km ([7]; CYP2B6 1 mg/mL, three biological replicates, read-out: Average KM): 40.6 ± 19.6 µM
Average Vmax ([7]; CYP2B6, Table S3): 0.3343 ± 0.1111 nmol/min
Vmax – repeat 1 ([7]; CYP2B6, biological repeat 1): 276.3 pmol/min
Vmax – repeat 2 ([7]; CYP2B6, biological repeat 2): 264.2 pmol/min
Vmax – repeat 3 ([7]; CYP2B6, biological repeat 3): 462.4 pmol/min
Km ([7]; human, CYPexpress CYP2B6 enzyme reagent, pH 7.4, CYP2B6 1 mg/mL, three biological replicates, read-out: Average KM): 40.6 ± 19.6 µM
Km ([7]; human, CYPexpress CYP2B6 enzyme reagent, pH 7.4, CYP2B6, biological repeat 1, read-out: KM – repeat 1): 33 µM
Km ([7]; human, CYPexpress CYP2B6 enzyme reagent, pH 7.4, CYP2B6, biological repeat 2, read-out: KM – repeat 2): 25.9 µM
Km ([7]; human, CYPexpress CYP2B6 enzyme reagent, pH 7.4, CYP2B6, biological repeat 3, read-out: KM – repeat 3): 62.9 µM

CN[C@H]1CC[C@@H](c2ccc(Cl)c(Cl)c2)c2ccccc21 [Sertraline, sertraline hydrochloride]
IC50 [8]: 385 nM and 1390 nM and 477 nM and 752 nM
Time dependence of CYP2B6 inhibition [9]: increases with time; also recorded: time-dependent manner
IC50 [10]: 2000 nM
IC50 ([11]; CYP2B6, Bupropion/LC-MS/MS, ref 52): 200 ± 24 nM
IC50 ([11]; CYP2B6, Bupropion/LC-MS/MS, ref 54): 1430 nM
IC50 ([11]; CYP2B6, HLM, Bupropion/LC-MS/MS): 3200 nM
IC50 [12]: 5790 nM and 3220 nM and 4240 nM and 4420 nM
Time dependence of CYP2D6 inhibition [13]: time-dependent manner; also recorded: increase in inhibition with time
